Experimental data reported in patent US7291461B2, “Methods for identifying small molecules that modulate premature translation termination and nonsense mRNA decay” (PTC Therapeutics, Inc., priority 2002, dated 2007).
“Also recorded” adds a separate entry of the source.

Tests used:
[1] = tested on: luciferase RNA containing a UGA premature termination codon; assay: in vitro translation nonsense suppression assay in HeLa cell extract; type: biochemical, human; conditions: FIG. 4
Procedure: This Example describes a method of preparing a cell extract to perform in vitro translation reactions to monitor nonsense suppression or to produce proteins in vitro. This method is different from other methods used to prepare translation extracts for several reasons.
HeLa S3 cells were grown to a density of 10^6 cells/ml in DMEM; 5% CO2, 10% FBS, 1×P/S in a spinner flask. Cells were harvested by spinning at 1000×g. Cells were washed twice with phosphate buffered saline. The cell pellet sat on ice for 12 to 24 hours before proceeding. By letting the cells sit on ice, the activity of the extract is increased two-fold. The length of time on ice can range from 0 hours to 1 week. The cells were resuspended in 1.5 volumes (packed cell volume) of hypotonic buffer (10 mM HEPES (KOH) pH 7.4; 15 mM KCl; 1.5 mM Mg(OAc)2; 0.5 mM Pefabloc (Roche); 2 mM DTT). Cells were allowed to swell for 5 minutes on ice and dounce homogenized with 10 to 100 strokes using a tight-fitting pestle. The cells were spun for 10 minutes at 12000×g at 4° C. in a Sorvall SS-34 rotor. […]
Further, in the presence of the aminoglycoside gentamicin, nonsense suppression activity (as measured by the amount of luciferase activity produced from a luciferase RNA containing a UGA premature termination codon) is increased 2 to 3 fold above untreated extracts (see FIG. 4). […]

[2] = tested on: mRNA containing a UGA premature termination codon; assay: biochemical assay: rabbit reticulocyte lysate and nonsense-containing luciferase reporter mRNA
Text: (§1) Two assays were developed for use in high throughput screens to identify small molecules that promote nonsense suppression. Each assay utilized luciferase because it is a functional reporter gene assay (light is only produced if the protein is functional) and it is extremely sensitive (Light intensity is proportional to luciferase concentration in the nM range). The first assay was a cell-based luciferase reporter assay and the second was a biochemical assay consisting of rabbit reticulocyte lysate and a nonsense-containing luciferase reporter mRNA. In the cell-based assay, a luciferase reporter construct containing a UGA premature termination codon was stably transfected in 293T Human Embryonic Kidney cells. In the biochemical assay, mRNA containing a UGA premature termination codon was used as a reporter in an in vitro translation reaction using rabbit reticulocyte lysate supplemented with tRNA, hemin, creatine kinase, amino acids, KOAc, Mg(OAc)2, and creatine phosphate. […] Synthetic mRNA was prepared in vitro using the T7 promoter and the MegaScript in vitro transcription kit (Ambion).

[3] = tested on: luciferase reporter construct containing a UGA premature termination codon in 293T Human Embryonic Kidney cells; assay: cell-based luciferase reporter assay, stable cell line
Text: as §1
Compound A and Compound B increase the level of nonsense suppression in the biochemical assay three to four fold over untreated extracts. […]

[4] = tested on: UGA, UAA or UAG nonsense alleles of luciferase; assay: nonsense suppression in cells transiently transfected with luciferase nonsense alleles in each codon context; type: cell-based; conditions: 3 mg/ml, overnight
Procedure: Cells were transiently transfected with plasmids harboring the UGA, UAA or UAG nonsense alleles of luciferase in each codon context (UGAA, UGAC, UGAG, UGAU, UAGA, UAGC, UAGG, UAGU, UAAA, UAAC, UAAG, and UAAU) then the cells were treated overnight with Compound A, and gentamicin. The following day, the level of suppression was determined by measuring the amount of luminescence produced. The fold suppression above control cells treated with solvent was calculated and is numerically reported.

dystrophin [5] = assay: dystrophin immunostaining in mdx mouse primary skeletal muscle cultures; type: cell-based; conditions: 200 μM
Procedure: FIG. 9. Immunohistochemistry of myotubes from primary cell culture from mdx muscle. The presence of dystrophin was detected by mAb to the COOH-terminus of dystrophin ([…]) followed by a rhodamine-conjugated anti-mouse IgG. […] Little dystrophin was detected in untreated mdx myotubes (right).
Mouse primary skeletal muscle cultures derived from 1-day old mdx mice were prepared as described previously (Barton-Davis et al., 1999, J Clin Invest. 104(4):375-381). Cells were cultured for 10 days in the presence of Compound A (20 μM). Culture medium was replaced every four days and the presence of dystrophin in myoblast cultures was detected by immunostaining as described previously (Barton-Davis et al., 1999, J Clin Invest. 104(4):375-381). A primary monoclonal antibody to the C-terminus of the dystrophin protein (F19A12) was used undiluted and rhodamine conjugated anti-mouse IgG was used as the secondary antibody. The F19A12 antibody will detect the full-length protein produced by suppression of the nonsense codon. Staining was viewed using a Leica DMR micropscope, digital camera, and associated imaging software at the University of Pennsylvania.

dystrophin [6] = assay: dystrophin immunofluorescence of tibialis anterior muscle of mdx mice treated by Alzet osmotic pumps; type: in vivo, mouse; conditions: tissue exposure approximately 200 μM, osmotic pump
Procedure: FIG. 10A-10F. Immunohistochemistry of muscle cross-sections to view dystrophin. […] Muscle from untreated mdx mice (panel E) or from cross sections not treated with primary antibody (panel F) show only minimal staining.
As previously described (Barton-Davis et al., 1999, J Clin Invest. 104(4):375-381), compound was delivered by Alzet osmotic pumps implanted under the skin of anesthetized mice. Two doses of Compound A were administered. Gentamicin served as a positive control and pumps filled with solvent only served as the negative control. Pumps were loaded with appropriate compound such that the calculated doses to which tissue was exposed were 10 μM and 20 μM. The gentamicin concentration was calculated to achieve tissue exposure of approximately 200 μM. In the initial experiment, mice were treated for 14 days, after which animals were anesthetized with ketamine and exsanguinated. The tibialis anterior (TA) muscle of the experimental animals was then excised, frozen, and used for immunofluorescence analysis of dystrophin incorporation into striated muscle. The presence of dystrophin in TA muscles was detected by immunostaining, as described previously (Barton-Davis et al., 1999, J Clin Invest. 104(4):375-381; see mdx primary cells in Section 7.8 supra).

Substance: gentamicin
- nonsense suppression activity (luciferase activity from luciferase RNA containing a UGA premature termination codon) above untreated extracts [1]: 2 to 3 fold
- luciferase activity on addition of compound [2]: increased luciferase activity
- luciferase activity on addition of compound [3]: increased luciferase activity
- fold suppression above control cells treated with solvent ([4]; context UAAA): 0.71 fold
- fold suppression above control cells treated with solvent ([4]; context UAAC): 2.32 fold
- fold suppression above control cells treated with solvent ([4]; context UAAG): 0.01 fold
- fold suppression above control cells treated with solvent ([4]; context UAAU): 0.92 fold
- fold suppression above control cells treated with solvent ([4]; context UAGA): 1.31 fold
- fold suppression above control cells treated with solvent ([4]; context UAGC): 2.16 fold
- fold suppression above control cells treated with solvent ([4]; context UAGG): 0.64 fold
- fold suppression above control cells treated with solvent ([4]; context UAGU): 0.54 fold
- fold suppression above control cells treated with solvent ([4]; context UGAA): 0.76 fold
- fold suppression above control cells treated with solvent ([4]; context UGAC): 1.91 fold
- fold suppression above control cells treated with solvent ([4]; context UGAG): 0.45 fold
- fold suppression above control cells treated with solvent ([4]; context UGAU): 6.74 fold
- presence of full-length dystrophin in myotubes (immunostaining, C-terminus antibody) (dystrophin [5]): full-length dystrophin protein is produced and localized to the muscle myotubes; also recorded: Dystrophin was present
- dystrophin in TA muscle (immunostaining) (dystrophin [6]): positive staining for dystrophin
